Assay results from ChEMBL document CHEMBL5120927, “LEGO-Lipophosphonoxins: A Novel Approach in Designing Membrane Targeting Antimicrobials” (J Med Chem, 2022).

Columns and labels:
Enterococcus faecalis = test: Antibacterial activity against Enterococcus faecalis ATCC 29212 = CCM 4224 assessed as inhibition of bacterial growth incubated for 24 hrs by microdilution assay; assay type: functional
Staphylococcus aureus [1] = test: Antibacterial activity against Staphylococcus aureus ATCC 29213 = CCM 4223 assessed as inhibition of bacterial growth incubated for 24 hrs by microdilution assay; assay type: functional
Staphylococcus aureus [2] = test: Antibacterial activity against Staphylococcus aureus ATCC 29213 = CCM 4223 assessed as inhibition of bacterial growth incubated for 24 hrs in presence of BSA by microdilution assay; assay type: functional
Escherichia coli [3] = test: Antibacterial activity against Escherichia coli ATCC 25922 = CCM 3954 assessed as inhibition of bacterial growth incubated for 24 hrs by microdilution assay; assay type: functional
Escherichia coli [4] = test: Antibacterial activity against Escherichia coli ATCC 25922 = CCM 3954 assessed as inhibition of bacterial growth incubated for 24 hrs in presence of BSA by microdilution assay; assay type: functional
Pseudomonas aeruginosa [5] = test: Antibacterial activity against Pseudomonas aeruginosa ATCC 27853 = CCM 3955 assessed as inhibition of bacterial growth incubated for 24 hrs by microdilution assay; assay type: functional
[6] = Hemolytic activity in human RBC assessed as haemoglobin release measured after 3 hr; assay type: toxicity, cell-based, Erythrocyte; details: red blood cells (erythrocytes)
[7] = Gradient chromatographic hydrophobicity index of the compound at pH 3.7 by HPLC analysis; assay type: ADME
[8] = test system: Staphylococcus epidermidis; test: Antibacterial activity against Staphylococcus epidermidis CCM 7221 assessed as inhibition of bacterial growth incubated for 24 hrs by microdilution assay; assay type: functional
Staphylococcus aureus [9] = test: Antibacterial activity against methicillin resistant Staphylococcus aureus 4591/A assessed as reduction in microbial growth incubated for 24 hrs by microdilution assay; assay type: functional
Escherichia coli [10] = test: Antibacterial activity against multidrug-resistant Escherichia coli CE5556 expressing CTX-M-15 assessed as reduction in microbial growth incubated for 24 hrs by microdilution assay; assay type: functional
Enterococcus faecium = test: Antibacterial activity against vancomycin resistant Enterococcus faecium 419/ANA assessed as reduction in microbial growth incubated for 24 hrs by microdilution assay; assay type: functional
Pseudomonas aeruginosa [11] = test: Antibacterial activity against multidrug-resistant Pseudomonas aeruginosa assessed as reduction in microbial growth incubated for 24 hrs by microdilution assay; assay type: functional
[12] = Cytotoxicity against human HepG2 cells assessed as reduction in cell viability; assay type: toxicity, cell-based

Structure (SMILES) | MIC (Enterococcus faecalis) [µg/mL] | MIC (Staphylococcus aureus [1]) [µg/mL] | MIC (Staphylococcus aureus [2]) [µg/mL] | MIC (Escherichia coli [3]) [µg/mL] | MIC (Escherichia coli [4]) [µg/mL] | MIC (Pseudomonas aeruginosa [5]) [µg/mL] | HC50 at 3 h [6] [µg/mL] | CHI [7] | MIC [8] [µg/mL] | MIC (Staphylococcus aureus [9]) [µg/mL] | MIC (Escherichia coli [10]) [µg/mL] | MIC (Enterococcus faecium) [µg/mL] | MIC (Pseudomonas aeruginosa [11]) [µg/mL] | CC50 [12] [µM]
Cl.Cl.Cl.Cl.Cl.Cl.NCCCN(CCCN)CCP(=O)(OCCCCCOP(=O)(CCN(CCCN)CCCN)OCC12CC3CC(CC(C3)C1)C2)OCC12CC3CC(CC(C3)C1)C2 (stereo unspecified) | 4 | 2 | 2 | 2 | 2 | 32 | 415 | 34.1 | 2 | 2 | 4 | 64 | 8 | > 99
Cl.Cl.Cl.Cl.Cl.Cl.NCCCN(CCCN)CCP(=O)(OCCCOP(=O)(CCN(CCCN)CCCN)OCC12CC3CC(CC(C3)C1)C2)OCC12CC3CC(CC(C3)C1)C2 (stereo unspecified) | 8 | 4 | 4 | 8 | 8 | 64 | > 500 | 32.6 | 2 | 4 | 16 | 64 | 16 | > 99
CCCCC/C=C\CCOP(=O)(CCN(CCCN)CCCN)OCCCCCCOP(=O)(CCN(CCCN)CCCN)OCC/C=C\CCCCC.Cl.Cl.Cl.Cl.Cl.Cl (stereo unspecified) | 2 | 0.5 | 2 | 1 | 0.5 | 2 | 262 | 37.5 | 0.5 | 1 | 1 | 8 | 2 | 30.8
CCC/C=C\CCOP(=O)(CCN(CCCN)CCCN)OCCCOP(=O)(CCN(CCCN)CCCN)OCC/C=C\CCC.Cl.Cl.Cl.Cl.Cl.Cl (stereo unspecified) | > 128 | 64 | 64 | > 128 | > 128 | 128 | > 200 | 23.4 | 8 | 32 | > 128 | > 128 | 128 | > 99
CCCCCCOP(=O)(CCN(CCCN)CCCN)OCCCCCCCCCCOP(=O)(CCN(CCCN)CCCN)OCCCCCC.Cl.Cl.Cl.Cl.Cl.Cl (stereo unspecified) | 4 | 0.5 | 3 | 0.5 | 1 | 4 | 743 | 34.8 | 0.5 | 1 | 8 | 32 | 8 | 17.5
CCCCCCCOP(=O)(CCN(CCCN)CCCN)OCCCCCCCOP(=O)(CCN(CCCN)CCCN)OCCCCCCC.Cl.Cl.Cl.Cl.Cl.Cl (stereo unspecified) | 4 | 1 | 1 | 8 | 1 | 16 | 287 | 33.9 | 0.5 | 1 | 2 | 64 | 8 | 89.5
CCCCC/C=C\CCOP(=O)(CCN(CCCN)CCCN)OCCCCCOP(=O)(CCN(CCCN)CCCN)OCC/C=C\CCCCC.Cl.Cl.Cl.Cl.Cl.Cl (stereo unspecified) | 4 | 1 | 2 | 2 | 1 | 4 | > 500 | 37.2 | 1 | 1 | 1 | 32 | 4 | 97.8
CCCC/C=C\CCOP(=O)(CCN(CCCN)CCCN)OCCCCCCOP(=O)(CCN(CCCN)CCCN)OCC/C=C\CCCC.Cl.Cl.Cl.Cl.Cl.Cl (stereo unspecified) | 16 | 1 | 4 | 2 | 4 | 16 | 34.8 | 33.8 | 0.5 | 1 | 2 | 64 | 16 | 92.5
CCC/C=C\CCOP(=O)(CCN(CCCN)CCCN)OCCCCCCOP(=O)(CCN(CCCN)CCCN)OCC/C=C\CCC.Cl.Cl.Cl.Cl.Cl.Cl (stereo unspecified) | > 128 | 4 | 16 | 16 | 32 | 128 | > 200 | 29.6 | 1 | 4 | 32 | > 128 | 128 | > 99
Cl.Cl.Cl.Cl.Cl.Cl.NCCCN(CCCN)CCP(=O)(OCCCOP(=O)(CCN(CCCN)CCCN)OCCC12CC3CC(CC(C3)C1)C2)OCCC12CC3CC(CC(C3)C1)C2 (stereo unspecified) | 2 | 1 | 2 | 2 | 1 | 16 | 196 | 36.9 | 2 | 1 | 2 | 32 | 4 | 93.6
CCCCCCCCOP(=O)(CCN(CCN)CCN)OCCCCCCOP(=O)(CCN(CCN)CCN)OCCCCCCCC.Cl.Cl.Cl.Cl.Cl.Cl (stereo unspecified) | 1 | 0.5 | 5 | 1 | 1 | 2 | 79 | 43.2 | 0.5 | 0.5 | 1 | 4 | 2 | 80.6
CCCCCCOP(=O)(CCN(CCCN)CCCN)OCCCCCCCCOP(=O)(CCN(CCCN)CCCN)OCCCCCC.Cl.Cl.Cl.Cl.Cl.Cl (stereo unspecified) | 16 | 1 | 2 | 1 | 8 | 16 | > 500 | 31.4 | 0.5 | 2 | 8 | > 128 | 64 | > 99
CCCCOP(=O)(CCN(CCN)CCN)OCCCCCCCCCCOP(=O)(CCN(CCN)CCN)OCCCC.Cl.Cl.Cl.Cl.Cl.Cl (stereo unspecified) | 64 | 64 | > 128 | 64 | > 128 | 64 | 55 | 34.2 | 64 | 128 | > 128 | 128 | 128 | > 99
Cl.Cl.Cl.Cl.Cl.Cl.NCCCN(CCCN)CCP(=O)(OCCCCCCCOP(=O)(CCN(CCCN)CCCN)OCCCC(F)(F)F)OCCCC(F)(F)F (stereo unspecified) | > 128 | > 128 | > 128 | 128 | > 128 | > 128 | > 200 | 24.6 | 128 | > 128 | > 128 | > 128 | > 128 | –
Cl.Cl.Cl.Cl.Cl.Cl.N=C(N)NCCCN(CCCNC(=N)N)CCP(=O)(OCCCCCCCOP(=O)(CCN(CCCNC(=N)N)CCCNC(=N)N)OCCCC(F)(F)F)OCCCC(F)(F)F (stereo unspecified) | > 128 | 8 | 16 | 1 | 128 | > 128 | > 200 | 25.2 | 8 | 8 | 128 | > 128 | > 128 | –
CCCCC/C=C\CCOP(=O)(CCN(CCCN)CCCN)OCCCOP(=O)(CCN(CCCN)CCCN)OCC/C=C\CCCCC.Cl.Cl.Cl.Cl.Cl.Cl (stereo unspecified) | 8 | 2 | 4 | 2 | 4 | 8 | > 500 | 36.2 | 2 | 2 | 4 | 64 | 4 | –
CCCCCCCCCCOP(=O)(CCN(CCCN)CCCN)OCCCOP(=O)(CCN(CCCN)CCCN)OCCCCCCCCCC.Cl.Cl.Cl.Cl.Cl.Cl (stereo unspecified) | 1 | 1 | 1 | 1 | 4 | 2 | 31.6 | 43.7 | 1 | 1 | 1 | 4 | 2 | –
CCC/C=C\CCOP(=O)(CCN(CCN)CCN)OCCCCCCCOP(=O)(CCN(CCN)CCN)OCC/C=C\CCC.Cl.Cl.Cl.Cl.Cl.Cl (stereo unspecified) | 16 | 2 | 4 | > 128 | 16 | 32 | > 500 | 37.4 | 0.5 | 1 | 32 | 128 | 32 | –
CC(C)COP(=O)(CCN(CCCN)CCCN)OCCCCCCCCCCCCOP(=O)(CCN(CCCN)CCCN)OCC(C)C.Cl.Cl.Cl.Cl.Cl.Cl (stereo unspecified) | 32 | 4 | 16 | 128 | > 128 | 32 | 170 | 31.4 | 1 | 4 | > 128 | 128 | 16 | 56.2
